Experimental data as given in ChEMBL document CHEMBL1201862, “PubChem BioAssay data set” (2004).
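In this assay, cells in 96-well plates receive the compound at five concentrations for 48 hours. Endpoints are linearly interpolated between the surrounding concentrations. Abbreviation: GI50, concentration required for 50% inhibition of growth.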 Activity calls are given as the source filed them. No stated cut-off is given here; in the data, active = GI50 up to about 1.1 µM and inactive = higher.

Legend:
Experiment in all cases: growth of human tumour cells (NCI), 48 h
[1] = tested on: NCI-H522
[2] = tested on: K562
[3] = tested on: SNB-75
[4] = tested on: ACHN
[5] = tested on: OVCAR-8
[6] = tested on: RXF 393
[7] = tested on: NCI-H23
[8] = tested on: CAKI-1
[9] = tested on: U-251
[10] = tested on: TK-10
[11] = tested on: SK-MEL-2
[12] = tested on: SK-OV-3
[13] = tested on: UACC-62
[14] = tested on: NCI-H226
[15] = tested on: COLO 205
[16] = tested on: MOLT-4
[17] = tested on: HCT-15
[18] = tested on: SN12C
[19] = tested on: HOP-92
[20] = tested on: HCC 2998

SMILES	GI50 [1]	GI50 [2]	GI50 [3]	GI50 [4]	GI50 [5]	GI50 [6]	GI50 [7]	GI50 [8]	GI50 [9]	GI50 [10]	GI50 [11]	GI50 [12]	GI50 [13]	GI50 [14]	GI50 [15]	GI50 [16]	GI50 [17] [µM]	GI50 [18]	GI50 [19]	GI50 [20]
NCCC1([N+](=O)[O-])C=CN=CC1 (configuration not stated)	> 100 µM (inactive)	> 100 µM (inactive)	6.98 µM (inactive)	> 100 µM (inactive)	> 100 µM (inactive)	> 100 µM (inactive)	> 100 µM (inactive)	> 100 µM (inactive)	> 100 µM (inactive)	> 100 µM (inactive)	> 100 µM (inactive)	> 100 µM (inactive)	> 100 µM (inactive)	> 100 µM (inactive)	> 100 µM (inactive)	> 100 µM (inactive)	> 100	> 100 µM (inactive)	< 0.01 µM (active)	
CCC1CN(C(=O)c2ccccc2)C(Cc2c[nH]c3ccccc23)C(=O)C1CC(=O)OC (configuration not stated)	50.9 µM (inactive)	47.8 µM (inactive)	88.3 µM (inactive)	> 100 µM (inactive)	79.6 µM (inactive)	> 100 µM (inactive)	74.6 µM (inactive)	54.7 µM (inactive)	41.6 µM (inactive)	> 100 µM (inactive)	> 100 µM (inactive)	> 100 µM (inactive)	32.1 µM (inactive)	> 100 µM (inactive)	> 100 µM (inactive)	27.7 µM (inactive)	> 100	> 100 µM (inactive)	> 100 µM (inactive)	
Cc1ccc(S(=O)(=O)N(CCN)c2cc3c4c(c2)Oc2cccc5c2C4c2c(cccc2O3)O5)cc1		30 µM (inactive)	12.6 µM (inactive)	44.7 µM (inactive)	11.1 µM (inactive)		36.1 µM (inactive)		19.6 µM (inactive)	48.9 µM (inactive)	22.8 µM (inactive)	27 µM (inactive)	47.3 µM (inactive)	12.4 µM (inactive)	22.6 µM (inactive)	18.5 µM (inactive)	81.1	34 µM (inactive)	0.9 µM (active)	> 100 µM (inactive)
Cc1cccc(-c2cc(=S)c3cc(N4CCCC4)ccc3[nH]2)c1		> 100 µM (inactive)	> 100 µM (inactive)	> 100 µM (inactive)		> 100 µM (inactive)		> 100 µM (inactive)	> 100 µM (inactive)	> 100 µM (inactive)	> 100 µM (inactive)	> 100 µM (inactive)	> 100 µM (inactive)	> 100 µM (inactive)	> 100 µM (inactive)	> 100 µM (inactive)	> 100	> 100 µM (inactive)	> 100 µM (inactive)	> 100 µM (inactive)
CCOC(=O)C1=C(O)C2C3CC4C2C(O)=C(C(=O)OCC)C2C1C3C42 (configuration not stated)	> 100 µM (inactive)	> 100 µM (inactive)	> 100 µM (inactive)	> 100 µM (inactive)	> 100 µM (inactive)	> 100 µM (inactive)	> 100 µM (inactive)	> 100 µM (inactive)	> 100 µM (inactive)	> 100 µM (inactive)	> 100 µM (inactive)	> 100 µM (inactive)	> 100 µM (inactive)	> 100 µM (inactive)	> 100 µM (inactive)	> 100 µM (inactive)	> 100	> 100 µM (inactive)	95.5 µM (inactive)	
CN1CCOC1(C)CO (configuration not stated)	> 100 µM (inactive)	> 100 µM (inactive)	28.6 µM (inactive)	> 100 µM (inactive)	> 100 µM (inactive)	> 100 µM (inactive)	> 100 µM (inactive)	> 100 µM (inactive)	> 100 µM (inactive)	> 100 µM (inactive)	> 100 µM (inactive)	> 100 µM (inactive)	> 100 µM (inactive)	> 100 µM (inactive)	> 100 µM (inactive)	> 100 µM (inactive)	> 100		> 100 µM (inactive)	
CCC(C)[C@@H](NC1=C(Cl)C(=O)c2c(O)ccc(O)c2C1=O)C(=O)OC (some centres not stated)	2.67 µM (inactive)	3.59 µM (inactive)	7.26 µM (inactive)	3.91 µM (inactive)	3.15 µM (inactive)		2.07 µM (inactive)	6.46 µM (inactive)	3.78 µM (inactive)	> 10 µM (inactive)	4.2 µM (inactive)	6.68 µM (inactive)	3.37 µM (inactive)	4.14 µM (inactive)	2.13 µM (inactive)	1.47 µM (inactive)	2.94	3.66 µM (inactive)	> 10 µM (inactive)	> 10 µM (inactive)
C=C1CC(Cn2cc(C)c(=O)[nH]c2=O)(c2ccc(-c3ccccc3)cc2)OC1=O (configuration not stated)	0.841 µM (active)	0.296 µM (active)	7.87 µM (inactive)	3.07 µM (inactive)	1.95 µM (inactive)		1.74 µM (inactive)	1.55 µM (inactive)	10.6 µM (inactive)	1.4 µM (inactive)	1.94 µM (inactive)	6.53 µM (inactive)	1.76 µM (inactive)	14.3 µM (inactive)	0.984 µM (active)	0.964 µM (active)	1.69	2.54 µM (inactive)	1.95 µM (inactive)	1.86 µM (inactive)
